Tests used:
MDA-MB-436 cells = assay: Proliferation assay MDA-MB-436, negative control cell line (Alamar Blue, 144 h); format: cell-based; conditions: arithmetic mean
Source text: (§1) Proliferation Assays for Compound Characterization
(§2) For compound characterization cell survival assays were routinely run in two cell lines. ZR-75-1 is a breast carcinoma cell line containing a focal KAT6A amplification and high KAT6A protein expression. Proliferation of this cell line is inhibited upon treatment with KAT6A inhibitors. As a negative control cell line MDA-MB-436 were used. These cells carry a […] deletion of the KAT6A gene, have a low KAT6A protein expression and are not growth inhibited upon treatment with KAT6A inhibitors.
(§3) For measurements cell lines were plated at the below indicated concentration per […] in 96-well plates in a humidified incubator at 37° C. and 5% CO2.
MDA-MB-436 (CLS, 300278; breast adenocarcinoma); 3000 cells per well; culture medium: DMEM/Ham's F12 (Biochrom #FG 4815) medium containing 2.5% FBS (Biochrom #S0615).
(§4) 24 hours later, cells were treated with compounds (stock solution, 10 mM in DMSO) using the HP D300 Digital Dispenser in a concentration range of 2.0×10E-5 M to 2.0×10E-9 M in a single-dot curve with 9 dilutions and a DMSO concentration of 0.2%. Each sample was prepared as triplicate and rim wells were excluded. Plates were incubated at 37° C. and 5% CO2 for 144 h. Cell viability was measured by adding 10 μL of Alamar Blue Reagent (Invitrogen #DAL 1100) and plates were incubated for 2 h at 37° C. and 5% CO2. Fluorescence was measured at 590 nm wavelength with a Tecan Spark or Victor X3 MTP-Reader (PerkinElmer).

[1] = tested on: ESR1 transcription (luciferase signal in MVLN cells); assay: Repression of ESR1 transcription, luciferase reporter in MVLN cells; format: cell-based; conditions: inhibition of luciferase signal in MVLN cells, arithmetic mean
Source text: Repression of ESR1 Transcription Upon Treatment of Cells with Compounds
KAT6A controls transcription of the ESR1 gene in breast cancer cells. Compound treatment that interferes with this mechanism was quantified using MVLN cells. These cells constitutively express the ER and are stably transfected with the luciferase (LUC) reporter gene and the corresponding hormone responsive element derived from the 5′-flanking region of the Xenopus Vitellogenin A2 gene (Pons et al., 1990, Demirpense et al., 1993, Joyeux et al., 1993). The repressive effect on ERα transcription activity of a test chemical is directly related to the luciferase measured in the lysate of treated MVLN cells.
Each sample was prepared as duplicate and rim wells were excluded. For luciferase signal determination 100 μl of a 1:1 mixture of Steadylite plus (Perkin Elmer; 6016759) and assay medium was added after 24 h for 15 minutes and measured in Victor X3 (Perkin Elmer). To exclude any effects caused by cell loss during the treatment, cell density was determined using Alamar Blue (Invitrogen; DAL1100). Prior to the luciferase measurement 10 μl Alamar Blue were added to each well and the plates were incubated for 2 h in the incubator. Then fluorescence was measured with Victor X3 (Perkin Elmer) at 530 nm/590 nm.

[2] = molecular target: Recombinant human His-tagged Kat6a protein (amino acids 194-810) (Homo sapiens (Human), UniProt Q92794); assay: Kat6a activity assay (TR-FRET, acetylation of biotinylated Histone-H4-derived peptide); format: biochemical; conditions: 60 mins at 22° C., read-out: KAT6A-DPF/HAT domain IC50 [mol/l] (arithmetic mean)
Source text: Kat6a inhibitory activities of the compounds described in the present invention were quantified using a Fluorescence Resonance Energy Transfer (TR-FRET) assay which measures acetylation of a synthetic, biotinylated Histone-H4-derived peptide by the enzyme.
Recombinant human His-tagged Kat6a protein (amino acids 194-810), was purified in-house from Baculovirus-infected insect cells (Sf9). Histone H4 peptide (amino acids 1-24, […]-VLRD-K(Btn)-amide), which was used as substrate, was synthesized by Biosyntan GmbH, Berlin, Germany. Acetyl Coenzyme A was purchased from Sigma-Aldrich (#A-2056).
Kat6a was incubated for 60 mins at 22° C. in the presence of different concentrations of test substances (0 μM, and within the range 0.01-20 μM) in assay buffer [25 mM Tris/HCl pH 8, 1 mM EGTA, 2.5 mM Glutathion, 0.02% Chicken Albumin, 0.05% Pluronic F127, 25 mM NaCl, 220 nM H4 peptide and 600 nM Acetyl Coenzym A].
The reaction was stopped by addition of Detection Solution (25 mM HEPES pH 7.5, 0.1% BSA, 22 nM SAXL665 (Cisbio #610SAXLE), 100 μM Anacardic Acid (Enzo #ALX-270-381), 1 nM Anti-Histone H4 (ACETYL K8) Antibody (ABCAM #AB15823) and 0.5 nM Anti-Rabbit IgG Eu (Perkin Elmer #AD0083).
The fluorescence emission at 620 nm and 665 nm after excitation at 330-350 nm was measured in a TR-FRET measuring instrument, for instance a Rubystar or a Pherastar (both from BMG Lab Technologies, Offenburg, Germany) or a Viewlux (Perkin-Elmer). The ratio of the emission at 665 nm and at […] was used as indicator of the amount of acetylated peptide.
The resulting data (ratio) were normalized, taking 0% inhibition as the mean value of control measurements where all reagents were included. In this case 50 nl DMSO were used instead of compounds. […] IC50 values were determined by regression analysis based on a 4 parameter equation (minimum, maximum, ICM, Hill; Y=Max+(Min−Max)/(1+(X/ICso) Hill) using the Screener Software (Genedata).
Table 5 depicts the IC50 values of selected examples in biochemical KAT6A and KAT6B3 assays.

ZR-75-1 cells = assay: Proliferation assay ZR-75-1 (Alamar Blue, 144 h); format: cell-based; conditions: Homo sapiens, ZR-75-1, 144 h, arithmetic mean, read-out: ZR75-1 proliferation assay, EC50 [M] (arithmetic mean)
Source text: as §1, §2, §3
ZR-75-1 (ATCC, CRL-1500; breast carcinoma); 3000 cells per well; culture medium: RPMI 1640 (Biochrom #FG 1215) medium containing 2.5% FBS (Biochrom #S0615).
as §4

[3] = Homo sapiens, MDA-MB-436, 144 h

Recombinant human His-tagged Kat6a protein (amino acids 194-810), sequence (Q92794 194-810): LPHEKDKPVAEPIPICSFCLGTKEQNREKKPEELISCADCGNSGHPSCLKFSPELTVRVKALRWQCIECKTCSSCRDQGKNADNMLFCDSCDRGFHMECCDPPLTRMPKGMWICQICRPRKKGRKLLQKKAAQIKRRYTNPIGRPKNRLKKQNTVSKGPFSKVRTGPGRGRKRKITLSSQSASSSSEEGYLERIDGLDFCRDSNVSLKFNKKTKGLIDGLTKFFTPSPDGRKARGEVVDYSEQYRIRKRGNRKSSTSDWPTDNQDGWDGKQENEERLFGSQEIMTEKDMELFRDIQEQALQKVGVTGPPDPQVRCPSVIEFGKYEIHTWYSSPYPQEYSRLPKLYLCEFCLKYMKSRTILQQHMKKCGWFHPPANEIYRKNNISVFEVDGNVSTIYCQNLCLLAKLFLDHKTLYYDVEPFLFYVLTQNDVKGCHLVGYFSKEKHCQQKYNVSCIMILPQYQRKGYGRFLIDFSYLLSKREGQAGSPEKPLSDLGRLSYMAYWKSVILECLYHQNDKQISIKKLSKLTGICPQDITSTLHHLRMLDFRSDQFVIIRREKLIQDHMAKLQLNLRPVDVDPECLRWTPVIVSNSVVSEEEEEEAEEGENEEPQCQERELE

| SMILES | IC50 [2] [µM] | EC50 (MDA-MB-436 cells; [3]) [µM] | IC50 ([1]; Homo sapiens, MVLN) [µM] | EC50 (MDA-MB-436 cells) [µM] | IC50 [1] [µM] | EC50 (ZR-75-1 cells) [M] |
| --- | --- | --- | --- | --- | --- | --- |
| C[C@H](Oc1cccc(OC2CCC2)c1S(=O)(=O)NC(=O)c1cc2ccc(N(C)C)cc2o1)C(F)(F)F (single isomer, unassigned) [Example 221] | 0.0444 | – | – | 8.25 | 0.582 | – |
| C[C@@H](Oc1cccc(OC2CCC2)c1S(=O)(=O)NC(=O)c1cc2ccc(N(C)C)cc2o1)C(F)(F)F (single isomer, unassigned) [Example 222] | 0.0306 | – | – | > 20 | 0.595 | – |
| CN(c1ccccc1)c1ccc2cc(C(=O)NS(=O)(=O)c3ccc(Cl)cc3Cl)oc2c1 [Example 9, N-(2,4-Dichlorophenyl)sulfonyl-6-(N-methylanilino)benzofuran-2-carboxamide] | – | > 20 | > 20 | – | – | > 2e-05 |
| CCCN(C)c1ccc2cc(C(=O)NS(=O)(=O)c3ccccc3-c3ccccc3)oc2c1 [Example 37, N-([1,1′-Biphenyl]-2-sulfonyl)-6-[methyl(propyl)amino]-1-benzofuran-2-carboxamide] | – | > 20 | 14 | – | – | > 2e-05 |
| CN(c1ccc2cc(C(=O)NS(=O)(=O)c3ccccc3-c3ccccc3)oc2c1)C1CCCC1 [Example 46, N-([1,1′-Biphenyl]-2-sulfonyl)-6-[cyclopentyl(methyl)amino]-1-benzofuran-2-carboxamide] | – | > 20 | > 20 | – | – | > 2e-05 |
| CN(C)c1ccc2cc(C(=O)NS(=O)(=O)c3ccccc3-c3ccc(CO)cc3)oc2c1 [Example 51, 6-(Dimethylamino)-N-[4′-(hydroxymethyl)[1,1′-biphenyl]-2-sulfonyl]-1-benzofuran-2-carboxamide] | – | > 20 | – | – | – | 1.01e-07 |
| O=C(NS(=O)(=O)c1ccccc1-c1ccccc1)c1cc2ccc(N3CCCC3=O)cc2o1 [Example 62, N-([1,1′-Biphenyl]-2-sulfonyl)-6-(2-oxopyrrolidin-1-yl)-1-benzofuran-2-carboxamide] | – | 11.4 | 3.07 | – | – | 1.09e-06 |
| CCc1ccc2nc(C)c(S(=O)(=O)NC(=O)c3cc4ccc(N(C)C)cc4o3)n2n1 [Example 94, 6-(Dimethylamino)-N-(6-ethyl-2-methylimidazo[1,2-b]pyridazine-3-sulfonyl)-1-benzofuran-2-carboxamide] | 0.287 | > 20 | 0.46 | – | – | – |
| CCOc1ccccc1S(=O)(=O)NC(=O)c1cc2cc(C(F)(F)F)c(N(C)C)cc2o1 [Example 201, 6-(Dimethylamino)-N-(2-ethoxybenzene-1-sulfonyl)-5-(trifluoromethyl)-1-benzofuran-2-carboxamide] | 0.137 | – | 4.23 | – | – | 2.9e-06 |
| CN(C)c1c(Br)cc2cc(C(=O)NS(=O)(=O)c3ccccc3-c3ccccc3)oc2c1F [Example 206, N-([1,1′-Biphenyl]-2-sulfonyl)-5-bromo-6-(dimethylamino)-7-fluoro-1-benzofuran-2-carboxamide] | – | > 20 | 9.5 | – | – | > 2e-05 |
| CN(C)c1ccc2cc(C(=O)NS(=O)(=O)c3ccccc3-c3ccccc3)n(C)c2c1 [Example 210, N-([1,1′-Biphenyl]-2-sulfonyl)-6-(dimethylamino)-1-methyl-1H-indole-2-carboxamide] | 6.66 | – | 11.3 | – | – | > 2e-05 |

Second part, led by results:

| IC50 [2] [µM] | EC50 (MDA-MB-436 cells; [3]) [µM] | IC50 ([1]; Homo sapiens, MVLN) [µM] | SMILES | EC50 (MDA-MB-436 cells) [µM] | IC50 [1] [µM] | EC50 (ZR-75-1 cells) [M] |
| --- | --- | --- | --- | --- | --- | --- |
| – | > 20 | 4.28 | CCN(C)c1ccc2cc(C(=O)NS(=O)(=O)c3ccc(Cl)cc3Cl)oc2c1 [Example 3, N-(2,4-Dichlorophenyl)sulfonyl-6-[ethyl(methyl)amino]benzofuran-2-carboxamide] | – | – | 2e-05 |
| – | > 20 | 0.1 | COCCN(C)c1ccc2cc(C(=O)NS(=O)(=O)c3ccccc3-c3ccccc3)oc2c1 [Example 39, N-([1,1′-Biphenyl]-2-sulfonyl)-6-[(2-methoxyethyl)(methyl)amino]-1-benzofuran-2-carboxamide] | – | – | 3.41e-08 |
| – | > 20 | – | CCCc1ccccc1S(=O)(=O)NC(=O)c1cc2ccc(N(C)C)cc2o1 [Example 52, 6-(Dimethylamino)-N-(2-propylbenzene-1-sulfonyl)-1-benzofuran-2-carboxamide] | – | – | 1.94e-07 |
| 0.44 | > 20 | – | COc1cc(C#N)ccc1S(=O)(=O)NC(=O)c1cc2ccc(N(C)C)cc2o1 [Example 53, N-(4-Cyano-2-methoxybenzene-1-sulfonyl)-6-(dimethylamino)-1-benzofuran-2-carboxamide] | – | – | 2.64e-07 |
| – | > 20 | 0.603 | CN(C)c1ccc2cc(C(=O)NS(=O)(=O)c3c(Cl)cccc3Cl)oc2c1 [Example 98, N-(2,6-Dichlorobenzene-1-sulfonyl)-(dimethylamino)-1-benzofuran-2-carboxamide] | – | – | 8.17e-07 |
| 3.2 | > 20 | > 20 | CN(C)c1ccc2cc(C(=O)NS(=O)(=O)Cc3ccccn3)oc2c1 [Example 106, 6-(Dimethylamino)-N-[(pyridin-2-yl)methanesulfonyl]-1-benzofuran-2-carboxamide] | – | – | – |
| – | > 20 | 0.254 | CN(C)c1ccc2cc(C(=O)NS(=O)(=O)c3cc(Cl)cc4cccnc34)oc2c1 [Example 124, N-(6-Chloroquinolone-8-sulfonyl)-6-(dimethylamino)-1-benzofuran-2-carboxamide] | – | – | – |
| 0.366 | – | 2.55 | CC(C)c1ccc(C(C)C)c(S(=O)(=O)NC(=O)c2cc3ccc(N(C)C)cc3o2)c1 [Example 162] | – | – | > 2e-05 |
| 4.35 | – | > 20 | CC(O)c1ccc(Cl)c(S(=O)(=O)NC(=O)c2cc3ccc(N(C)C)cc3o2)c1 (stereo not drawn) [Example 163] | – | – | 9.38e-07 |
| 4.45 | – | > 20 | COCCOc1ccc(Cl)c(S(=O)(=O)NC(=O)c2cc3ccc(N(C)C)cc3o2)c1 [Example 164] | – | – | > 2e-05 |
| 1.29 | – | 5.77 | CN(C)c1ccc2cc(C(=O)NS(=O)(=O)c3cc(C(F)(F)F)ccc3NCC(F)F)oc2c1 [Example 165] | – | – | 9.21e-06 |

From patent US12357603B2, “Acyl sulfonamides for treating cancer” (Bayer Aktiengesellschaft, priority 2019, dated 2025)
